Data from PubChem BioAssay AID256 (DTP/NCI, 2004).
Several values for one entry are separate records, joined by “and”; a condition that tells them apart may be missing. Identical values can stand only once. Toxic doses and inconclusive results are not listed. The calls were made as follows: active = survival T/C of 150% or more; inactive = T/C below 125% in these data. Residues, ends and D or L forms follow the SMILES beside them.

Test system: CD2F1 mice, L1210 leukemia ip, survival T/C
Test: NCI In Vivo Anticancer Drug Screen. Data for tumor model L1210 Leukemia (intraperitoneal) in CD2F1 (CDF1) mice
Settings: higher = longer survival
Summary of the method: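 In this screen, transplantable tumors were grown in mice given either the compound or its vehicle. Results were expressed as the treated measurement relative to the control measurement.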

[1] = endpoint: mean survival time, dose: 12.5 mg/kg/injection, schedule: Q01DX009 (ip), vehicle: water
[2] = endpoint: mean survival time, dose: 25.0 mg/kg/injection, schedule: Q01DX009 (ip), vehicle: water
[3] = endpoint: mean survival time, dose: 50.0 mg/kg/injection, schedule: Q01DX009 (ip), vehicle: water
[4] = endpoint: mean survival time, dose: 100.0 mg/kg/injection, schedule: Q01DX009 (ip), vehicle: water

Measured: T/C

Nc1nc(N)c(-c2ccc(Cl)cc2)c(CBr)n1
inactive: endpoint: mean survival time, dose: 6.25 mg/kg/injection, schedule: Q01DX001 (ip), vehicle: saline 95 % of control | endpoint: mean survival time, dose: 12.5 mg/kg/injection, schedule: Q01DX001 (ip), vehicle: saline 98 % of control | endpoint: mean survival time, dose: 25.0 mg/kg/injection, schedule: Q01DX001 (ip), vehicle: saline with Tween-80 106 % of control | endpoint: mean survival time, dose: 25.0 mg/kg/injection, schedule: Q01DX001 (ip), vehicle: saline 98 % of control | endpoint: mean survival time, dose: 50.0 mg/kg/injection, schedule: Q01DX001 (ip), vehicle: saline with Tween-80 95 % of control | endpoint: mean survival time, dose: 100.0 mg/kg/injection, schedule: Q01DX001 (ip), vehicle: saline with Tween-80 102 % of control and 110 % of control

COC1=CC23CCCN2CCc2cc4c(cc2C3C1O)OCO4 (stereo not drawn)
inactive: [1] 97 % of control | [2] 101 % of control | [3] 100 % of control | [4] 95 % of control | endpoint: mean survival time, dose: 200.0 mg/kg/injection, schedule: Q01DX009 (ip), vehicle: water 97 % of control

O=C1CC2/C(=[N+](/[O-])O)C=C([N+](=O)[O-])C(C1C(=O)Nc1ccccc1)C2[N+](=O)[O-] (stereo not drawn)
inactive: endpoint: mean survival time, dose: 100.0 mg/kg/injection, schedule: Q04DX002 (ip), vehicle: saline with Tween-80 110 % of control | endpoint: mean survival time, dose: 200.0 mg/kg/injection, schedule: Q04DX002 (ip), vehicle: saline with Tween-80 98 % of control | endpoint: mean survival time, dose: 400.0 mg/kg/injection, schedule: Q04DX002 (ip), vehicle: saline with Tween-80 110 % of control

O=C1C2C3C=CC(O3)C2C(=O)N1O (stereo not drawn)
inactive: [1] 97 % of control | [2] 96 % of control

O=S(=O)(O)O.[Pt].c1ccc([PH+](c2ccccc2)c2ccccc2)cc1.c1ccc([PH+](c2ccccc2)c2ccccc2)cc1.c1ccc([PH+](c2ccccc2)c2ccccc2)cc1
inactive: endpoint: mean survival time, dose: 3.12 mg/kg/injection, schedule: Q04DX003 (ip), vehicle: distilled water + Tween-80 102 % of control | endpoint: mean survival time, dose: 6.25 mg/kg/injection, schedule: Q04DX003 (ip), vehicle: distilled water + Tween-80 102 % of control | endpoint: mean survival time, dose: 12.5 mg/kg/injection, schedule: Q04DX003 (ip), vehicle: distilled water + Tween-80 105 % of control | endpoint: mean survival time, dose: 25.0 mg/kg/injection, schedule: Q04DX003 (ip), vehicle: distilled water + Tween-80 102 % of control

CC(O)C(NC(=O)C(N)CCCN=C(N)N)C(=O)NC(Cc1ccccc1)C(=O)O (stereo not drawn) (H-Arg-Thr-Phe-OH; configuration not given here)
inactive: endpoint: mean survival time, dose: 12.5 mg/kg/injection, schedule: Q04DX002 (ip), vehicle: saline 98 % of control | endpoint: mean survival time, dose: 25.0 mg/kg/injection, schedule: Q04DX002 (ip), vehicle: saline 95 % of control | endpoint: mean survival time, dose: 50.0 mg/kg/injection, schedule: Q04DX002 (ip), vehicle: saline 98 % of control

COc1ccc(/C=C2/C=C(c3ccccc3)OC2=O)cc1
inactive: endpoint: mean survival time, dose: 100.0 mg/kg/injection, schedule: Q04DX003 (ip), vehicle: saline 98 % of control | endpoint: mean survival time, dose: 200.0 mg/kg/injection, schedule: Q04DX003 (ip), vehicle: saline 101 % of control | endpoint: mean survival time, dose: 400.0 mg/kg/injection, schedule: Q04DX003 (ip), vehicle: saline 98 % of control

S=P(S)(c1ccccc1)c1ccccc1
inactive: endpoint: mean survival time, dose: 80.5 mg/kg/injection, schedule: Q01DX009 (ip), vehicle: saline with Tween-80 104 % of control | endpoint: mean survival time, dose: 161.0 mg/kg/injection, schedule: Q01DX009 (ip), vehicle: saline with Tween-80 98 % of control | endpoint: mean survival time, dose: 322.0 mg/kg/injection, schedule: Q01DX009 (ip), vehicle: saline with Tween-80 100 % of control

Cn1c(=O)cc(C=Nc2ccc(O)cc2)c2ccccc21
inactive: endpoint: mean survival time, dose: 100.0 mg/kg/injection, schedule: Q01DX009 (ip), vehicle: saline with Tween-80 94 % of control | endpoint: mean survival time, dose: 200.0 mg/kg/injection, schedule: Q01DX009 (ip), vehicle: saline with Tween-80 90 % of control | endpoint: mean survival time, dose: 400.0 mg/kg/injection, schedule: Q01DX009 (ip), vehicle: saline with Tween-80 97 % of control

CCCCCCCCN(C)S(=O)(=O)CCCC
inactive: endpoint: mean survival time, dose: 6.25 mg/kg/injection, schedule: Q01DX009 (ip), vehicle: water 103 % of control | [1] 95 % of control | [2] 106 % of control | [3] 111 % of control | [4] 103 % of control

CCCCn1ccnc1C
inactive: endpoint: mean survival time, dose: 6.25 mg/kg/injection, schedule: Q01DX009 (ip), vehicle: saline 102 % of control | endpoint: mean survival time, dose: 6.25 mg/kg/injection, schedule: Q04DX003 (ip), vehicle: saline 94 % of control | endpoint: mean survival time, dose: 12.5 mg/kg/injection, schedule: Q01DX009 (ip), vehicle: saline 103 % of control | endpoint: mean survival time, dose: 12.5 mg/kg/injection, schedule: Q04DX003 (ip), vehicle: saline 94 % of control | endpoint: mean survival time, dose: 25.0 mg/kg/injection, schedule: Q01DX009 (ip), vehicle: saline 103 % of control | endpoint: mean survival time, dose: 25.0 mg/kg/injection, schedule: Q04DX003 (ip), vehicle: saline 94 % of control

CC(C)NC(=O)NO
inactive: endpoint: mean survival time, dose: 4.0 mg/kg/injection, schedule: Q03HX024 (ip), vehicle: saline 95 % of control | endpoint: mean survival time, dose: 8.0 mg/kg/injection, schedule: Q03HX024 (ip), vehicle: saline 98 % of control | endpoint: mean survival time, dose: 16.0 mg/kg/injection, schedule: Q03HX024 (ip), vehicle: saline 103 % of control | endpoint: mean survival time, dose: 32.0 mg/kg/injection, schedule: Q03HX024 (ip), vehicle: saline 98 % of control | endpoint: mean survival time, dose: 62.0 mg/kg/injection, schedule: Q03HX024 (ip), vehicle: saline with Tween-80 87 % of control | endpoint: mean survival time, dose: 64.0 mg/kg/injection, schedule: Q03HX024 (ip), vehicle: saline 98 % of control

CSc1nc(N)c2cnn(C3OC(CO)C(O)C3O)c2n1 (stereo not drawn)
inactive: endpoint: median survival time, dose: 8.13 mg/kg/injection, schedule: Q01DX005 (ip), vehicle: saline with Tween-80 100 % of control | endpoint: median survival time, dose: 9.0 mg/kg/injection, schedule: Q01DX005 (ip), vehicle: saline 107 % of control | endpoint: median survival time, dose: 12.5 mg/kg/injection, schedule: Q01DX005 (ip), vehicle: saline with Tween-80 102 % of control | endpoint: median survival time, dose: 16.25 mg/kg/injection, schedule: Q01DX005 (ip), vehicle: saline with Tween-80 97 % of control | endpoint: median survival time, dose: 18.0 mg/kg/injection, schedule: Q01DX005 (ip), vehicle: saline 100 % of control | endpoint: median survival time, dose: 25.0 mg/kg/injection, schedule: Q01DX005 (ip), vehicle: saline with Tween-80 100 % of control | endpoint: median survival time, dose: 32.5 mg/kg/injection, schedule: Q01DX005 (ip), vehicle: saline with Tween-80 101 % of control | endpoint: median survival time, dose: 36.0 mg/kg/injection, schedule: Q01DX005 (ip), vehicle: saline 103 % of control | endpoint: median survival time, dose: 50.0 mg/kg/injection, schedule: Q01DX005 (ip), vehicle: saline with Tween-80 94 % of control | endpoint: median survival time, dose: 65.0 mg/kg/injection, schedule: Q01DX005 (ip), vehicle: saline with Tween-80 100 % of control | endpoint: median survival time, dose: 72.0 mg/kg/injection, schedule: Q01DX005 (ip), vehicle: saline 97 % of control | endpoint: median survival time, dose: 100.0 mg/kg/injection, schedule: Q01DX005 (ip), vehicle: saline with Tween-80 93 % of control | endpoint: median survival time, dose: 130.0 mg/kg/injection, schedule: Q01DX005 (ip), vehicle: saline with Tween-80 101 % of control | endpoint: median survival time, dose: 200.0 mg/kg/injection, schedule: Q01DX005 (ip), vehicle: saline with Tween-80 94 % of control

O=P(Cl)(Oc1cccc2c(OP(=O)(Cl)N(CCCl)CCCl)cccc12)N(CCCl)CCCl (stereo not drawn)
inactive: endpoint: mean survival time, dose: 31.25 mg/kg/injection, schedule: Q01DX001 (ip), vehicle: distilled water + Tween-80 100 % of control | endpoint: mean survival time, dose: 62.5 mg/kg/injection, schedule: Q01DX001 (ip), vehicle: distilled water + Tween-80 101 % of control | endpoint: mean survival time, dose: 125.0 mg/kg/injection, schedule: Q01DX001 (ip), vehicle: distilled water + Tween-80 91 % of control | endpoint: mean survival time, dose: 250.0 mg/kg/injection, schedule: Q01DX001 (ip), vehicle: distilled water + Tween-80 95 % of control | endpoint: mean survival time, dose: 500.0 mg/kg/injection, schedule: Q01DX001 (ip), vehicle: distilled water + Tween-80 92 % of control
